pIC50: −log10 of the molar value.
Target: aryl hydrocarbon receptor (AhR) (Homo sapiens, UniProt P35869)
Assay: [3H]TCDD radioligand competition in whole T47D cells
Type: cell-based

Sequence of aryl hydrocarbon receptor (AhR) (P35869 11-848): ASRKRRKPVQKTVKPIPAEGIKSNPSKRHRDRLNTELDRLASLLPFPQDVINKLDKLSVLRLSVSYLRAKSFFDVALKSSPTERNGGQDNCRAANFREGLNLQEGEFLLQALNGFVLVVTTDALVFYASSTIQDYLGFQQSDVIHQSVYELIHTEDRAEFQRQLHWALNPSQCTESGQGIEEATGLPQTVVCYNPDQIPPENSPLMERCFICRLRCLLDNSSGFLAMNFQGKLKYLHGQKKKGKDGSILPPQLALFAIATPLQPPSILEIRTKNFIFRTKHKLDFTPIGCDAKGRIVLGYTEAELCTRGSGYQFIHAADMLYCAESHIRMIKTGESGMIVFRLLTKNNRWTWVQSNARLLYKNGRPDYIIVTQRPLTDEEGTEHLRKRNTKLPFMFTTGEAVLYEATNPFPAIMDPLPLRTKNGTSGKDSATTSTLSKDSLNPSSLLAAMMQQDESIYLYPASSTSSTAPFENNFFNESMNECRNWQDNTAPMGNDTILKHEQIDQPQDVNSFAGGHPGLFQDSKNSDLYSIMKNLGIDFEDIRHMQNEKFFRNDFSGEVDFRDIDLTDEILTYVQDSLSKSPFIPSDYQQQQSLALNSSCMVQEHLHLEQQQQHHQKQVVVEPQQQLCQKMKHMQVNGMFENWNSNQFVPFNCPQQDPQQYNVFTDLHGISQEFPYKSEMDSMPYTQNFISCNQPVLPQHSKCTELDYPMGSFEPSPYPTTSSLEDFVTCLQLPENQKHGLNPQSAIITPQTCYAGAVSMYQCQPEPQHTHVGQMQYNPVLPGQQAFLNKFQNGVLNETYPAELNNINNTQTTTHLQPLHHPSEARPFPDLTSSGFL

pIC50: 6.80
SMILES: O=C(O)/C=C/c1ccc(O)c(O)c1 [caffeic acid]

— article PMC400651 (Breast Cancer Research, 2003)
